As usually defined, the IC50 is the concentration that gives 50% inhibition.

Counter-ions that a name gives are not always drawn.

One experiment deals with LSD1 (Homo sapiens, UniProt O60341). Kind of experiment: Biochemical assay for LSD1 activity (LSD1 demethylase TR-FRET).
Details: not given
(Time-resolved FRET reads energy transfer from a long-lived donor to a nearby acceptor.)
The molecule `CC(=Cc1ccc(C#N)cc1)C1CC1N` (stereo not drawn) [Compound 129, 4-(2-(2-aminocyclopropyl)prop-1-en-1-yl)benzonitrile Hydrochloride] showed an IC50 above 10000 nM.

The same experiment, now with this note: Table 5; biotinylated H3K4me1 peptide, 50 minutes at room temperature, TR-FRET; read-out: LSD1_Pep_TR-FRET_1.0 (IC50 T50).
With `CC1(N)CC1/C=C/c1ccccc1` (stereo not drawn) [Compound 112, 1-methyl-2-((E)-styryl)cyclopropanamine], the IC50 was in the range of 100 to 1000 nM.
For the molecule `O=C(O)CCN1CCC(CNC2CC2/C=C/c2ccccc2)CC1` (stereo not drawn) [Compound 105, (E)-3-(4-(((2-styrylcyclopropyl)amino)methyl)piperidin-1-yl)propanoic acid], the IC50 fell in the range of 100 to 1000 nM.

Still in this experiment, the particulars now being: Table 6; biotinylated H3K4me1 peptide, 50 minutes at room temperature, TR-FRET; read-out: LSD1_Pep_TR-FRET_1.0 (IC50 T50).
Regarding `CC/C(=C\c1ccccc1)[C@@H]1C[C@H]1NCC1CCN(Cc2ccc(C(=O)O)cc2)CC1` (racemic) [Compound 163, 4-((4-((((trans)-2-((E)-1-phenylbut-1-en-2-yl)cyclopropyl)amino)methyl)piperidin-1-yl)methyl)benzoic acid bis trifluoroacetic acid salt], the IC50 was below 100 nM.
For the molecule `CC/C(=C\c1ccccc1)[C@@H]1C[C@H]1N[C@H]1CC[C@H](NCC(C)(C)C#N)CC1` (single isomer, unassigned) [Compound 157, 2,2-dimethyl-3-(((trans)-4-(((trans)-2-((E)-1-phenylbut-1-en-2-yl)cyclopropyl)amino)cyclohexyl)amino)propanenitrile bis(trifluoroacetic acid salt)], the IC50 was below 100 nM.
The same measure, in the same setting: the figure for `C/C(=C\c1ccc(-c2cnn(C)c2)cc1)[C@@H]1C[C@H]1NC1CCNCC1` (racemic) [Compound 175] is below 100 nM; for `CC/C(=C\c1ccccc1)[C@@H]1C[C@H]1N[C@H]1CC[C@H](NCC2(C(=O)O)CC2)CC1` (racemic) [Compound 223, 1-((((trans)-4-(((trans)-2-((E)-1-phenylbut-1-en-2-yl)cyclopropyl)amino)cyclohexyl)amino)methyl)cyclopropane-1-carboxylic Acid] it is below 100 nM.
Same read-out and setting: the figure for `CCC1(NCC2CCNCC2)CC1/C(C)=C/c1ccccc1` (stereo not drawn) [Compound 173, 1-ethyl-2-((E)-1-phenylprop-1-en-2-yl)-N-(piperidin-4-ylmethyl)cyclopropanamine Dihydrochloride] is below 100 nM; for `C/C(=C\c1ccccc1)[C@@H]1C[C@H]1NC1CCN(CCc2ccc(C(=O)O)cc2)CC1` (racemic) [Compound 206, 4-(2-(4-(((trans)-2-((E)-1-phenylprop-1-en-2-yl)cyclopropyl)amino)piperidin-1-yl)ethyl)benzoic Acid Dihydrochloride] it is 100 to 1000 nM; for `CC/C(=C\c1ccccc1)[C@@H]1C[C@H]1N[C@H]1CC[C@@H](N(C)CCC(=O)O)CC1` (racemic) [Compound 213, 3-(methyl((cis)-4-(((trans)-2-((E)-1-phenylbut-1-en-2-yl)cyclopropyl)amino)cyclohexyl)amino)propanoic Acid Dihydrochloride] it is 100 to 1000 nM.
On to `C/C(=C\c1ccccc1)[C@@H]1C[C@H]1NC1CCN(Cc2ccc(C(=O)O)cc2)CC1` [compound 192], for which the IC50 fell in the range of 100 to 1000 nM.
The same measure, in the same setting: the figure for `C/C(=C\c1ccccc1)[C@@H]1C[C@H]1N[C@H]1CC[C@H](NCCC#N)CC1` (single isomer, unassigned) [Compound 155, 3-(((trans)-4-(((trans)-2-((E)-1-phenylprop-1-en-2-yl)cyclopropyl)amino)cyclohexyl)amino)propanenitrile bis(trifluoroacetic acid) salt] is below 100 nM.
Regarding `Fc1ccccc1/C=C/C1CC1NCC1CCNCC1` (stereo not drawn) [Compound 186, (E)-2-(2-fluorostyryl)-N-(piperidin-4-ylmethyl)cyclopropan-1-amine Dihydrochloride], the IC50 is below 100 nM.
On the same count and under the same terms, under `C/C(=C\c1ccccc1)[C@@H]1C[C@H]1NC1CCN(Cc2ccc(C(=O)O)nc2)CC1` (racemic) [Compound 200, 5-((4-(((trans)-2-((E)-1-phenylprop-1-en-2-yl)cyclopropyl)amino)piperidin-1-yl)methyl)picolinic Acid Dihydrochloride] stands below 100 nM.
`C/C(=C\c1ccccc1)[C@@H]1C[C@H]1N[C@H]1CC[C@H](NCCC(N)=O)CC1` (single isomer, unassigned) [Compound 151, 3-(((trans)-4-(((trans)-2-((E)-1-phenylprop-1-en-2-yl)cyclopropyl)amino)cyclohexyl)amino)propanamide bis(trifluoroacetic acid) salt]: the 50% inhibitory concentration (IC50) was below 100 nM.
On the same count and under the same terms, the figure for `CC/C(=C\c1ccccc1)[C@@H]1C[C@H]1NCC1CCN(Cc2ccc(C(=O)OC(C)(C)C)cc2)CC1` (racemic) [Compound 127] is 100 to 1000 nM.
On the same count and under the same terms, the figure for `CC/C(=C\c1ccccc1)[C@@H]1C[C@H]1N[C@H]1CC[C@H](N)CC1` (racemic) [Compound 169, (trans)-N^1-((trans)-2-((E)-1-phenylbut-1-en-2-yl)cyclopropyl)cyclohexane-1,4-diamine Dihydrochloride] is below 100 nM; for `CC/C(=C\c1ccccc1)[C@@H]1C[C@H]1N[C@H]1CC[C@H](NCc2c(OC)cc(C)[nH]c2=O)CC1` (single isomer, unassigned) [Compound 160, 4-methoxy-6-methyl-3-((((trans)-4-(((trans)-2-((E)-1-phenylbut-1-en-2-yl)cyclopropyl)amino)cyclohexyl)amino)methyl)pyridin-2(1H)-one bis(trifluoroacetic acid salt)] it is below 100 nM; for `C/C(=C\c1ccccc1)[C@@H]1C[C@H]1N[C@H]1CC[C@H](NCCCC(=O)O)CC1` (racemic) [Compound 164, 4-(((trans)-4-(((trans)-2-((E)-1-phenylprop-1-en-2-yl)cyclopropyl)amino)cyclohexyl)amino)butanoic Acid bis(trifluoroacetic Acid) Salt] it is below 100 nM.
Same read-out and setting: under `CC/C(=C\c1ccccc1)[C@@H]1C[C@H]1N[C@H]1CC[C@H](NCC(=O)O)CC1` (racemic) [Compound 182, 2-(((trans)-4-(((trans)-2-((E)-1-phenylbut-1-en-2-yl)cyclopropyl)amino)cyclohexyl)amino)acetic acid] stands below 100 nM.
Consider `CC(=Cc1ccc(C#N)cc1)C1CC1N[C@H]1CC[C@@H](N)CC1` (relative stereo) [Compound 131, 4-(2-(2-(((cis)-4-aminocyclohexyl)amino)cyclopropyl)prop-1-en-1-yl)benzonitrile Dihydrochloride], for which the IC50 was above 10000 nM.
Still for that read-out and setting: the figure for `CC/C(=C\c1ccccc1)[C@@H]1C[C@H]1N[C@H]1CC[C@@H](N)CC1` (racemic) [Compound 168, (cis)-N^1-((trans)-2-((E)-1-phenylbut-1-en-2-yl)cyclopropyl)cyclohexane-1,4-diamine Dihydrochloride] is below 100 nM.
Still for that read-out and setting: under `CCC1(NC2CCNCC2)CC1/C(C)=C/c1ccccc1` (stereo not drawn) [Compound 174, bis(trifluoroacetic Acid) Salt] stands below 100 nM; under `CC(C)/C(=C\c1ccccc1)[C@@H]1C[C@H]1NC1CCN(Cc2ccc(C(=O)O)cc2)CC1` (racemic) [Compound 179, 4-((4-(((trans)-2-((E)-3-methyl-1-phenylbut-1-en-2-yl)cyclopropyl)amino)piperidin-1-yl)methyl)benzoic Acid bis(trifluoroacetic Acid) Salt], below 100 nM.
For `C/C(=C\c1ccccc1)[C@@H]1C[C@H]1NC1CCN(CCC(=O)N(C)C)CC1` (racemic) [Compound 198, N,N-dimethyl-3-(4-(((trans)-2-((E)-1-phenylprop-1-en-2-yl)cyclopropyl)amino)piperidin-1-yl)propanamide Dihydrochloride], the IC50 is below 100 nM.
Regarding `C/C(=C\c1ccccc1)[C@@H]1C[C@H]1NC1CCN(Cc2ccc(C(N)=O)cc2)CC1` (racemic) [Compound 137, 4-((4-(((trans)-2-((E)-1-phenylprop-1-en-2-yl)cyclopropyl)amino)piperidin-1-yl)methyl)benzamide dihydrochloride], the IC50 is below 100 nM.
Same read-out and setting: the figure for `COc1ccc(/C=C(\C)[C@@H]2C[C@H]2N)cc1` [compound 130, 2,2,2-trifluoroacetate] is 1000 to 10000 nM.

The experiment is the same for the next values; noted with them: Table 7; biotinylated H3K4me1 peptide, 50 minutes at room temperature, TR-FRET; read-out: LSD1_Pep_TR-FRET_1.0 (IC50 T50).
In the case of `CC/C(=C\c1ccccc1)[C@@H]1C[C@H]1NC1CC2(C1)CN(Cc1ccc(C(=O)O)cc1)C2` (single isomer, unassigned) [Compound 250], the IC50 was below 100 nM.
On the same count and under the same terms, under `CC/C(=C\c1ccccc1)[C@@H]1C[C@H]1NC1CC2(C1)CN(CC(C)(C)C(=O)O)C2` (racemic) [Compound 229] stands below 100 nM.
Same read-out and setting: the figure for `CC/C(=C\c1ccccc1)[C@@H]1C[C@H]1NC1CC2(C1)CN(Cc1ccc(C(=O)O)cn1)C2` (single isomer, unassigned) [Compound 249, 6-((6-(((1R,2S or 1S,2R)-2-(E)-1-phenylbut-1-en-2-yl)cyclopropyl)amino)-2-azaspiro[3.3]heptan-2-yl)methyl)nicotinic Acid Bis Trifluoroacetate] is below 100 nM.
Take `CC/C(=C\c1ccccc1)[C@@H]1C[C@H]1NCC1(C)CN(Cc2ccc(C(=O)O)cc2)C1` (racemic) [Compound 235]: the IC50 is below 100 nM.
On the same count and under the same terms, under `CC/C(=C\c1ccccc1)[C@@H]1C[C@H]1NCCC(C)(C)N` (racemic) [Compound 240] stands below 100 nM.
Still for that read-out and setting: the figure for `CC/C(=C\c1ccccc1)[C@@H]1C[C@H]1NC[C@H]1C[C@H](NCC(C)(C)C(=O)O)C1` (racemic) [Compound 233] is below 100 nM; for `CC/C(=C\c1ccccc1)[C@@H]1C[C@H]1NC1CC2(C1)CN(Cc1ccc(-c3nnn[nH]3)cc1)C2` (single isomer, unassigned) [Compound 252] it is below 100 nM.
On the same count and under the same terms, under `CC/C(=C\c1ccccc1)[C@@H]1C[C@H]1NC1CC2(C1)CN(Cc1ccc(C(=O)O)cc1C)C2` (single isomer, unassigned) [Compound 254] stands below 100 nM; under `CC/C(=C\c1ccccc1)[C@@H]1C[C@H]1NC[C@H]1C[C@H](NCc2ccc(C(=O)O)cc2)C1` (racemic) [Compound 236], below 100 nM.

The values above are taken from patent US10526287B2, “LSD1 inhibitors and uses thereof” (Constellation Pharmaceuticals, Inc., priority 2015, dated 2020).
